Experimental data as given in patent publication US20140018347A1, “BENZOXAZEPINES AS INHIBITORS OF mTOR AND METHODS OF THEIR USE AND MANUFACTURE” (Exelixis, Inc., priority 2010, published 2014).

Legend:
PI3Kalpha = PI3Kalpha (Homo sapiens, UniProt P42336); experiment: PI3K Biochemical Assays (PI3K-alpha assay); settings: ATP consumption, luciferase-luciferin; 1 μM ATP, 10 μM PIP2
How it was run: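 Recombinant PI3Kα 3 nM, ATP 1 μM and PIP2 10 μM in Tris pH 7.5 with 10 mM MgCl2, ~2 h at ambient temperature. ATP depletion (held to 40-60%) was read by Kinase-Glo luminescence for IC50. Other isoforms: β 10 nM, δ 4 nM; γ 40 nM, 1 h, 5 mM MgCl2.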

mTORC1 = mTORC1 (Homo sapiens, UniProt P42345); experiment: mTOR/GbL/Raptor (mTORC1) ELISA Assay; format: biochemical; settings: phosphorylation of 4E-BP1; 0.2 nM mTORC1, 10 μM ATP
How it was run: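 Kinase reaction: 0.2 nM mTORC1, 10 μM ATP, 50 nM NHis-4E-BP1 in Hepes pH 7.2 with 10 mM MnCl2, 120 min at ambient temperature. Phospho-4E-BP1 was captured on Ni-chelate plates and detected by anti-phospho-4E-BP1 rabbit IgG, HRP secondary and chemiluminescence.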

Chain of PI3Kalpha (P42336 whole entry, canonical isoform): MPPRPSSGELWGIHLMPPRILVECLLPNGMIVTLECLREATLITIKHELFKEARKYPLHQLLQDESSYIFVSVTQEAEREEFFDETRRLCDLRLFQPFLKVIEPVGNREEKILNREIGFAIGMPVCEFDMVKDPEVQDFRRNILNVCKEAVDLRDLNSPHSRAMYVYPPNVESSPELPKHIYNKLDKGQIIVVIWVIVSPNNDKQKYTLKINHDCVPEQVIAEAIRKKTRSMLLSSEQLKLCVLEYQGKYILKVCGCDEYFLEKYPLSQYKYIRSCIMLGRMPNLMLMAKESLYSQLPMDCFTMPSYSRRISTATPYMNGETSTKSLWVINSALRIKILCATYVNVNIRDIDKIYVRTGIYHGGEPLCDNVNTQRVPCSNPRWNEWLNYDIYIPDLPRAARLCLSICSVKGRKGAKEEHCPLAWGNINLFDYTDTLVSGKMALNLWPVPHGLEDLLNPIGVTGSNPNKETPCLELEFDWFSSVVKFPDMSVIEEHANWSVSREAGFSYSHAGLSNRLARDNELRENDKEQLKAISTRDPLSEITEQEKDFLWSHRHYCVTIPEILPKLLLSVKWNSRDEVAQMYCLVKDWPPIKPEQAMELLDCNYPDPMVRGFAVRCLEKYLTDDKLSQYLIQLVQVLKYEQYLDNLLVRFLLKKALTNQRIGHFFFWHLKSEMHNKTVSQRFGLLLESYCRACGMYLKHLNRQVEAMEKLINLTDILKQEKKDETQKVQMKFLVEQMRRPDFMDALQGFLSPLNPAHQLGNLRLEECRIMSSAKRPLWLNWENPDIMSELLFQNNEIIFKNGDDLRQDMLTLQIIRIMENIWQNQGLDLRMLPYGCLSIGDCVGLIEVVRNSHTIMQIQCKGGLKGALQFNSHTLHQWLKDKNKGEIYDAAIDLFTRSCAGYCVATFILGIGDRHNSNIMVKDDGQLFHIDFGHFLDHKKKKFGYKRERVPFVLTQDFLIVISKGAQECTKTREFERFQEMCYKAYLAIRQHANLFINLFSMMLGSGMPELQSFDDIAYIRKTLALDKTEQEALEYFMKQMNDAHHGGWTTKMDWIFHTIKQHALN
Chain of PI3Kalpha (P27986 whole entry partner, canonical isoform): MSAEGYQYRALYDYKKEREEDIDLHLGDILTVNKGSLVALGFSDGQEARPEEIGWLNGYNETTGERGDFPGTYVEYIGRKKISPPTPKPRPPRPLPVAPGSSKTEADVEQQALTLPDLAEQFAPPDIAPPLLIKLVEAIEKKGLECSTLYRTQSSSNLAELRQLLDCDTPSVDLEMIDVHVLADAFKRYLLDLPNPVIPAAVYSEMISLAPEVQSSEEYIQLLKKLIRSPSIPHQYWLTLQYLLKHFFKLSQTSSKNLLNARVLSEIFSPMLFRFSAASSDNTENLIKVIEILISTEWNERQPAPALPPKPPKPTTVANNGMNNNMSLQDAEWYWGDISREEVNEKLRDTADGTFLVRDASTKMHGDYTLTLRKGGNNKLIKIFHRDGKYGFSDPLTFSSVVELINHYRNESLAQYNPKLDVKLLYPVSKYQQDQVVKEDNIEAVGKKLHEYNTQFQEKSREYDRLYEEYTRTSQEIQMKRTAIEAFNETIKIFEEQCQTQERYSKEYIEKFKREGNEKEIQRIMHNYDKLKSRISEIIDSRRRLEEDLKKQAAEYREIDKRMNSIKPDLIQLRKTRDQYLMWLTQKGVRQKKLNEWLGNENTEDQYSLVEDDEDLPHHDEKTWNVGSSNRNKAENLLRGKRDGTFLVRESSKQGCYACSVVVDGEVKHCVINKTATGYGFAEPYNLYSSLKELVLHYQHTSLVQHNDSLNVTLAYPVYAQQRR

IC50 (PI3Kalpha) | IC50 (mTORC1) | SMILES
≤ 0.1 µM | 0.1 to 0.5 µM | Nc1nc(Cl)c(CO)c(N2CCOc3ccc(-c4cnc5sc(N)nc5c4)cc3C2)n1 [Compound 43, {2-amino-4-[7-(2-amino[1,3]thiazolo[5,4-b]pyridin-6-yl)-2,3-dihydro-1,4-benzoxazepin-4(5H)-yl]-6-chloropyrimidin-5-yl}methanol]
≤ 0.1 µM | 0.1 to 0.5 µM | Cc1nc(N)nc(N2CCOc3ccc(-c4cnc5sc(N)nc5c4)cc3C2)c1CCC#N [Compound 44, 3-{2-amino-4-[7-(2-amino[1,3]thiazolo[5,4-b]pyridin-6-yl)-2,3-dihydro-1,4-benzoxazepin-4(5H)-yl]-6-methylpyrimidin-5-yl}propanenitrile]
0.5 to 2.5 µM | 0.5 to 2.5 µM | Cc1nc(CN(C)C)nc(N2CCOc3ccc(-c4cnc5sc(N)nc5c4)cc3C2)c1CC(O)CO (stereo not drawn) [Compound 45, 3-{4-[7-(2-amino[1,3]thiazolo[5,4-b]pyridin-6-yl)-2,3-dihydro-1,4-benzoxazepin-4(5H)-yl]-2-[(dimethylamino)methyl]-6-methylpyrimidin-5-yl}propane-1,2-diol]
0.1 to 0.5 µM | 0.5 to 2.5 µM | Cc1cc(N2CCOc3ccc(-c4cnc5sc(N)nc5c4)cc3C2)nc(N)n1 [Compound 46, 6-[4-(2-amino-6-methylpyrimidin-4-yl)-2,3,4,5-tetrahydro-1,4-benzoxazepin-7-yl][1,3]thiazolo[5,4-b]pyridin-2-amine]
0.5 to 2.5 µM | 0.5 to 2.5 µM | CC(C)(C)c1cnc(N)nc1N1CCOc2ccc(-c3cnc4sc(N)nc4c3)cc2C1 [Compound 47, 6-{4-[2-amino-5-(1,1-dimethylethyl)pyrimidin-4-yl]-2,3,4,5-tetrahydro-1,4-benzoxazepin-7-yl}[1,3]thiazolo[5,4-b]pyridin-2-amine]
0.1 to 0.5 µM | 0.1 to 0.5 µM | CCOC(=O)c1cnc(N)nc1N1CCOc2ccc(-c3cnc4sc(N)nc4c3)cc2C1 [Compound 48, ethyl 2-amino-4-[7-(2-amino[1,3]thiazolo[5,4-b]pyridin-6-yl)-2,3-dihydro-1,4-benzoxazepin-4(5H)-yl]pyrimidine-5-carboxylate]
≤ 0.1 µM | 0.1 to 0.5 µM | N#Cc1cnc(N2CCOc3ccc(-c4cnc5sc(N)nc5c4)cc3C2)nc1N [Compound 49, 4-amino-2-[7-(2-amino[1,3]thiazolo[5,4-b]pyridin-6-yl)-2,3-dihydro-1,4-benzoxazepin-4(5H)-yl]pyrimidine-5-carbonitrile]
0.1 to 0.5 µM | 0.1 to 0.5 µM | Nc1cc(Cl)nc(N2CCOc3ccc(-c4cnc5sc(N)nc5c4)cc3C2)n1 [Compound 50, 6-[4-(4-amino-6-chloropyrimidin-2-yl)-2,3,4,5-tetrahydro-1,4-benzoxazepin-7-yl][1,3]thiazolo[5,4-b]pyridin-2-amine]
0.5 to 2.5 µM | 0.1 to 0.5 µM | Nc1cc(N2CCOc3ccc(-c4cnc5sc(N)nc5c4)cc3C2)nc(Cl)n1 [Compound 51, 6-[4-(6-amino-2-chloropyrimidin-4-yl)-2,3,4,5-tetrahydro-1,4-benzoxazepin-7-yl][1,3]thiazolo[5,4-b]pyridin-2-amine]
≤ 0.1 µM | ≤ 0.1 µM | C=Cc1c(C)nc(N)nc1N1CCOc2ccc(-c3cnc4sc(N)nc4c3)cc2C1 [Compound 52, 6-[4-(2-amino-5-ethenyl-6-methylpyrimidin-4-yl)-2,3,4,5-tetrahydro-1,4-bcnzoxazepin-7-yl][1,3]thiazolo[5,4-b]pyridin-2-amine]
≤ 0.1 µM | ≤ 0.1 µM | CC(O)c1c(Cl)nc(N)nc1N1CCOc2ccc(-c3cnc4sc(N)nc4c3)cc2C1 (stereo not drawn) [Compound 53, 1-{2-amino-4-[7-(2-amino[1,3]thiazolo[5,4-b]pyridin-6-yl)-2,3-dihydro-1,4-benzoxazepin-4(5H)-yl]-6-chloropyrimidin-5-yl}ethanol]
≤ 0.1 µM | ≤ 0.1 µM | Cc1nc(CN(C)C)nc(N2CCOc3ccc(-c4cnc5sc(N)nc5c4)cc3C2)c1C(C)C [Compound 55, 6-(4-{2-[(dimethylamino)methyl]-6-methyl-5-(1-methylethyl)pyrimidin-4-yl}-2,3,4,5-tetrahydro-1,4-benzoxazepin-7-yl)[1,3]thiazolo[5,4-b]pyridin-2-amine]
≤ 0.1 µM | ≤ 0.1 µM | CC[C@H]1CCc2c(nc(N)nc2N2CCOc3ccc(-c4cnc5sc(N)nc5c4)cc3C2)C1 [Compound 56, (7S)-4-[7-(2-amino[1,3]thiazolo[5,4-b]pyridin-6-yl)-2,3-dihydro-1,4-benzoxazepin-4(5H)-yl]-7-ethyl-5,6,7,8-tetrahydroquinazolin-2-amine]
≤ 0.1 µM | ≤ 0.1 µM | CC1CC(C)(C)Cc2c1nc(N)nc2N1CCOc2ccc(-c3cnc4sc(N)nc4c3)cc2C1 (stereo not drawn) [Compound 57, 4-[7-(2-amino[1,3]thiazolo[5,4-b]pyridin-6-yl)-2,3-dihydro-1,4-benzoxazepin-4(5H)-yl]-6,6,8-trimethyl-5,6,7,8-tetrahydroquinazolin-2-amine]
≤ 0.1 µM | ≤ 0.1 µM | N#Cc1cnc(N)cc1N1CCOc2ccc(-c3cnc4sc(N)nc4c3)cc2C1 [Compound 58, 6-amino-4-[7-(2-amino[1,3]thiazolo[5,4-b]pyridin-6-yl)-2,3-dihydro-1,4-benzoxazepin-4(5H)-yl]pyridine-3-carbonitrile]
≤ 0.1 µM | ≤ 0.1 µM | Cc1nc2c(c(N3CCOc4ccc(-c5cnc6sc(N)nc6c5)cc4C3)n1)CC(C)(C)CC2 [Compound 59, 6-[4-(2,6,6-trimethyl-5,6,7,8-tetrahydroquinazolin-4-yl)-2,3,4,5-tetrahydro-1,4-benzoxazepin-7-yl][1,3]thiazolo[5,4-b]pyridin-2-amine]
≤ 0.1 µM | ≤ 0.1 µM | CC1(C)CCc2nc(CC#N)nc(N3CCOc4ccc(-c5cnc6sc(N)nc6c5)cc4C3)c2C1 [Compound 60, {4-[7-(2-amino[1,3]thiazolo[5,4-b]pyridin-6-yl)-2,3-dihydro-1,4-benzoxazepin-4(5H)-yl]-6,6-dimethyl-5,6,7,8-tetrahydroquinazolin-2-yl}acetonitrile]
≤ 0.1 µM | ≤ 0.1 µM | CC1(C)CCc2nc(N)nc(N3CCOc4ccc(-c5cnc6sc(N)nc6c5)cc4C3)c2C1 [Compound 61, 4-[7-(2-amino[1,3]thiazolo[5,4-b]pyridin-6-yl)-2,3-dihydro-1,4-benzoxazepin-4(5H)-yl]-6,6-dimethyl-5,6,7,8-tetrahydroquinazolin-2-amine]
≤ 0.1 µM | ≤ 0.1 µM | Cc1nc(CN(C)C)nc(N2CCOc3ccc(-c4cnc5sc(N)nc5c4)cc3C2)c1Cc1ccc(F)cc1 [Compound 62, 6-(4-{2-[(dimethylamino)methyl]-5-[(4-fluorophenyl)methyl]-6-methylpyrimidin-4-yl}-2,3,4,5-tetrahydro-1,4-benzoxazepin-7-yl)[1,3]thiazolo[5,4-b]pyridin-2-amine]
≤ 0.1 µM | 0.1 to 0.5 µM | CNc1nc(N)nc(N2CCOc3ccc(-c4cnc5sc(N)nc5c4)cc3C2)c1C [Compound 63, 6-[7-(2-amino[1,3]thiazolo[5,4-b]pyridin-6-yl)-2,3-dihydro-1,4-benzoxazepin-4(5H)-yl]-N~4~,5-dimethylpyrimidine-2,4-diamine]
≤ 0.1 µM | 0.5 to 2.5 µM | Cc1nc(CN(C)C)nc(N2CCOc3ccc(-c4cnc5sc(N)nc5c4)cc3C2)c1Br [Compound 64, 6-(4-{5-bromo-2-[(dimethylamino)methyl]-6-methylpyrimidin-4-yl}-2,3,4,5-tetrahydro-1,4-benzoxazepin-7-yl)[1,3]thiazolo[5,4-b]pyridin-2-amine]
≤ 0.1 µM | 0.1 to 0.5 µM | Cc1nc(CN(C)C)nc(N2CCOc3ccc(-c4cnc5sc(N)nc5c4)cc3C2)c1Cl [Compound 65, 6-(4-{5-chloro-2-[(dimethylamino)methyl]-6 methylpyrimidin-4-yl}-2,3,4,5-tetrahydro-1,4-benzoxazepin-7-yl)[1,3]thiazolo[5,4-b]pyridin-2-amine]
0.1 to 0.5 µM | 0.5 to 2.5 µM | Cc1nc(CN(C)C)nc(N2CCOc3ccc(-c4cnc5sc(N)nc5c4)cc3C2)c1F [Compound 66, 6-(4-{2-[(dimethylamino)methyl]-5-fluoro-6-methylpyrimidin-4-yl)-1,3,4,5-tetrahydro-1,4-benzoxazepin-7-yl)[1,3]thiazolo[5,4-b]pyridin-2-amine]
≤ 0.1 µM | 0.1 to 0.5 µM | COc1nc(N)nc(N2CCOc3ccc(-c4cnc5sc(N)nc5c4)cc3C2)c1C [Compound 67]
≤ 0.1 µM | ≤ 0.1 µM | CCCc1c(C)nc(CN(C)C)nc1N1CCOc2ccc(-c3cnc4sc(N)nc4c3)cc2C1 [Compound 69, 6-(4-{2-[(dimethylamino)methyl]-6-methyl-5-propylpyrimidin-4-yl}-1,3,4,5-tetrahydro-1,4-benzoxazepin-7-yl)[1,3]thiazolo[5,4-b]pyridin-2-amine]
≤ 0.1 µM | ≤ 0.1 µM | C=CCc1c(C)nc(CN(C)C)nc1N1CCOc2ccc(-c3cnc4sc(N)nc4c3)cc2C1 [Compound 70, 6-(4-{2-[(dimethylamino)methyl]-6-methyl-5-prop-2-en-1-ylpyrimidin-4-yl}-2,3,4,5-tetrahydro-1,4-benzoxazepin-7-yl)[1,3]thiazolo[5,4-b]pyridin-2-amine]
≤ 0.1 µM | ≤ 0.1 µM | C#CCc1c(C)nc(N)nc1N1CCOc2ccc(-c3cnc4sc(N)nc4c3)cc2C1 [Compound 71, 6-[4-(2-amino-6-methyl-5-prop-2-yn-1-ylpyrimidin-4-yl)-2,3,4,5-tetrahydro-1,4-benzoxazepin-7-yl][1,3]thiazolo[5,4-b]pyridin-2-amine]
